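Cultured in 96-well plates, cells were exposed to test compound for 48 hours across five concentrations. GI50: concentration for 50% inhibition of growth. TGI: total growth inhibition.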
What was measured:
Assay in all cases: NCI anticancer screen, dose series, 48 h
[1] = system: 786-0 renal
[2] = system: A498 renal
[3] = system: A549 NSCLC
[4] = system: ACHN renal
[5] = system: BT-549 breast
[6] = system: CAKI-1 renal
[7] = system: CCRF-CEM leukemia
[8] = system: COLO 205 colon
[9] = system: DU-145 prostate
[10] = system: EKVX NSCLC
[11] = system: HCC-2998 colon
[12] = system: HCT-116 colon
[13] = system: HCT-15 colon
[14] = system: HL-60(TB) leukemia
[15] = system: HOP-62 NSCLC
[16] = system: HOP-92 NSCLC
[17] = system: HS 578T breast
[18] = system: HT29 colon
[19] = system: IGROV1 ovarian
[20] = system: K-562 leukemia
[21] = system: KM12 colon
[22] = system: LOX IMVI melanoma
[23] = system: M14 melanoma
[24] = system: MALME-3M melanoma
[25] = system: MCF7 breast
[26] = system: MDA-MB-231 breast
[27] = system: MDA-MB-435
[28] = system: MDA-MB-468 breast
[29] = system: MOLT-4 leukemia
[30] = system: NCI-H226 lung
[31] = system: NCI-H23 lung
[32] = system: NCI-H460 lung
[33] = system: NCI-H522 lung
[34] = system: NCI/ADR-RES ovarian
[35] = system: OVCAR-3 ovarian
[36] = system: OVCAR-4 ovarian
[37] = system: OVCAR-5 ovarian
[38] = system: OVCAR-8 ovarian
[39] = system: PC-3 prostate
[40] = system: RPMI-8226 leukemia
[41] = system: RXF 393 renal
[42] = system: SF-268 CNS
[43] = system: SF-295 CNS
[44] = system: SF-539 CNS
[45] = system: SK-MEL-2 melanoma
[46] = system: SK-MEL-28 melanoma
[47] = system: SK-MEL-5 melanoma
[48] = system: SK-OV-3 ovarian
[49] = system: SN12C renal
[50] = system: SNB-19 CNS
[51] = system: SNB-75 CNS
[52] = system: SR leukemia
[53] = system: SW-620 colon
[54] = system: T-47D breast
[55] = system: TK-10 renal
[56] = system: U251 CNS
[57] = system: UACC-257 melanoma
[58] = system: UACC-62 melanoma
[59] = system: UO-31 renal

SMILES: O=C(N/N=C/c1c[nH]c2ccccc12)Nc1ccccc1Cl
- GI50 [1]: 493 nM
- TGI [1]: 3740 nM
- GI50 [2]: 5230 nM
- TGI [2]: 18500 nM
- GI50 [3]: 577 nM
- TGI [3]: 13000 nM
- GI50 [4]: 665 nM
- TGI [4]: 14600 nM
- GI50 [5]: 311 nM
- TGI [5]: 6310 nM
- GI50 [6]: 257 nM
- TGI [6]: 13800 nM
- GI50 [7]: 178 nM
- TGI [7]: 10200 nM
- GI50 [8]: 292 nM
- TGI [8]: 1070 nM
- GI50 [9]: 432 nM
- TGI [9]: 11400 nM
- GI50 [10]: 500 nM
- TGI [10]: 13000 nM
- GI50 [11]: 608 nM
- TGI [11]: 3490 nM
- GI50 [12]: 70.9 nM
- TGI [12]: 3820 nM
- GI50 [13]: 65.8 nM
- TGI [13]: 12000 nM
- GI50 [14]: 102 nM
- TGI [14]: 2630 nM
- GI50 [15]: 427 nM
- TGI [15]: 15600 nM
- GI50 [16]: 869 nM
- TGI [16]: 8330 nM
- GI50 [17]: 285 nM
- TGI [17]: 15000 nM
- GI50 [18]: 119 nM
- TGI [18]: 986 nM
- GI50 [19]: 358 nM
- TGI [19]: 12200 nM
- GI50 [20]: 39.1 nM
- TGI [20]: > 33800 nM
- GI50 [21]: 172 nM
- TGI [21]: 5190 nM
- GI50 [22]: 274 nM
- TGI [22]: 10600 nM
- GI50 [23]: 111 nM
- TGI [23]: 11900 nM
- GI50 [24]: 239 nM
- TGI [24]: 16000 nM
- GI50 [25]: 230 nM
- TGI [25]: 14300 nM
- GI50 [26]: 508 nM
- TGI [26]: 4930 nM
- GI50 [27]: 27 nM
- TGI [27]: 89.1 nM
- GI50 [28]: 217 nM
- TGI [28]: 584 nM
- GI50 [29]: 264 nM
- TGI [29]: 12600 nM
- GI50 [30]: 1690 nM
- TGI [30]: 19600 nM
- GI50 [31]: 424 nM
- TGI [31]: 6890 nM
- GI50 [32]: 336 nM
- TGI [32]: 6200 nM
- GI50 [33]: 42.2 nM
- TGI [33]: 328 nM
- GI50 [34]: 57.4 nM
- TGI [34]: 613 nM
- GI50 [35]: 96 nM
- TGI [35]: 2320 nM
- GI50 [36]: 2780 nM
- TGI [36]: 29700 nM
- GI50 [37]: 670 nM
- TGI [37]: 13100 nM
- GI50 [38]: 401 nM
- TGI [38]: 5760 nM
- GI50 [39]: 428 nM
- TGI [39]: 15400 nM
- GI50 [40]: 345 nM
- TGI [40]: 4760 nM
- GI50 [41]: 292 nM
- TGI [41]: 2100 nM
- GI50 [42]: 844 nM
- TGI [42]: 15000 nM
- GI50 [43]: 255 nM
- TGI [43]: 2520 nM
- GI50 [44]: 205 nM
- TGI [44]: 684 nM
- GI50 [45]: 222 nM
- TGI [45]: 11300 nM
- GI50 [46]: 2520 nM
- TGI [46]: 19100 nM
- GI50 [47]: 254 nM
- TGI [47]: 1370 nM
- GI50 [48]: 526 nM
- TGI [48]: 20200 nM
- GI50 [49]: 433 nM
- TGI [49]: 6510 nM
- GI50 [50]: 590 nM
- TGI [50]: 16800 nM
- GI50 [51]: 232 nM
- TGI [51]: 2640 nM
- GI50 [52]: 41.1 nM
- TGI [52]: 12900 nM
- GI50 [53]: 117 nM
- TGI [53]: 16000 nM
- GI50 [54]: 386 nM
- TGI [54]: 26600 nM
- GI50 [55]: 2410 nM
- TGI [55]: 20600 nM
- GI50 [56]: 288 nM
- TGI [56]: 11100 nM
- GI50 [57]: 598 nM
- TGI [57]: 22500 nM
- GI50 [58]: 148 nM
- TGI [58]: 4700 nM
- GI50 [59]: 471 nM
- TGI [59]: 14900 nM
